Assays:
Experiment in all cases: Cancer cell growth inhibition
Assay type in all cases: cell-based
MDAMB435 = settings: Homo sapiens, MDA-MB-435; MDAMB435 (skin), 72 hr treatment
Method: (§1) The ability of select compounds to inhibit cell growth in various cancer cell lines are evaluated. […] The cell lines shown in Table 2 have reduced growth by at least 50% at 10 uM or lower over 72 hr treatment in growth media. The cell lines shown in Table 3 have reduced growth by at least 50% with an IC50 greater than 10 uM.
(§2) Six 10-fold compound dilutions are prepared in DMSO (e.g. 10 mM, 1 mM, 100 uM, 10 uM, 1 uM, and 0.1 uM). Single data points are acquired for each concentration. The final concentration of DMSO is 0.1%. The duration of the treatment is 72 hr. Growth inhibition is measured using Sulforhodamine B in a protein staining assay. Activity of the agents is determined by evaluation the following parameters: IC50, GI50, IC10, TGI, LC50, IC90, and GI90 (where these values can be calculated).

MDAMB436 = settings: Homo sapiens, MDA-MB-436; MDAMB436 (breast), 72 hr treatment
Method: as §1, §2

UO31 = settings: Homo sapiens, UO-31; UO31 (kidney), 72 hr treatment
Method: as §1, §2

MIAPACA2 = settings: Homo sapiens, MIA PaCa-2; MIAPACA2 (pancreas), 72 hr treatment
Method: as §1, §2

COLO205 = settings: Homo sapiens, COLO 205; COLO205 (colon), 72 hr treatment
Method: as §1, §2

IMR90 = settings: Homo sapiens, IMR-90; IMR90 (lung), 72 hr treatment
Method: as §1, §2

IGROV1 = settings: Homo sapiens, IGROV-1; IGROV1 (ovary), 72 hr treatment
Method: as §1, §2

MHHES1 = settings: Homo sapiens, MHH-ES-1; MHHES1 (bone), 72 hr treatment
Method: as §1, §2

HS578T = settings: Homo sapiens, Hs-578T; HS578T (breast), 72 hr treatment
Method: as §1, §2

CACO2 = settings: Homo sapiens, Caco-2; CACO2 (colon), 72 hr treatment
Method: as §1, §2

BXPC3 = settings: Homo sapiens, BXPC-3; BXPC3 (pancreas), 72 hr treatment
Method: as §1, §2

PC3 = settings: Homo sapiens, PC-3; PC3 (prostate), 72 hr treatment
Method: as §1, §2

SKNSH = settings: Homo sapiens, SK-N-SH; SKNSH (brain), 72 hr treatment
Method: as §1, §2

HELA = settings: Homo sapiens; HELA (endometrial), 72 hr treatment
Method: as §1, §2

CAKI1 = settings: Homo sapiens, CAKI-1; CAKI1 (kidney), 72 hr treatment
Method: as §1, §2

DU145 = settings: Homo sapiens, DU-145; DU145 (prostate), 72 hr treatment
Method: as §1, §2

JIMT1 = settings: Homo sapiens, JIMT-1; JIMT1 (breast), 72 hr treatment
Method: as §1, §2

A673 = settings: Homo sapiens; A673 (muscle), 72 hr treatment
Method: as §1, §2

SF268 = settings: Homo sapiens, SF-268; SF268 (brain), 72 hr treatment
Method: as §1, §2

SKNAS = settings: Homo sapiens, SK-N-AS; SKNAS (brain), 72 hr treatment
Method: as §1, §2

NCIH460 = settings: Homo sapiens, NCI-H460; NCIH460 (lung), 72 hr treatment
Method: as §1, §2

EFO21 = settings: Homo sapiens, EFO-21; EFO21 (ovary), 72 hr treatment
Method: as §1, §2

SNB75 = settings: Homo sapiens, SNB-75; SNB75 (brain), 72 hr treatment
Method: as §1, §2

HEPG2 = settings: Homo sapiens; HEPG2 (liver), 72 hr treatment
Method: as §1, §2

SU-DHL-10 = settings: Homo sapiens, SU-DHL10; SU-DHL-10 (hematological), 72 hr treatment
Method: as §1, §2

HCT15 = settings: Homo sapiens, HCT-15; HCT15 (colon), 72 hr treatment
Method: as §1, §2

U87MG = settings: Homo sapiens, U-87 MG; U87MG (brain), 72 hr treatment
Method: as §1, §2

SKHEP1 = settings: Homo sapiens, SK-HEP1; SKHEP1 (liver), 72 hr treatment
Method: as §1, §2

HL-60 = settings: Homo sapiens; HL-60 (hematological), 72 hr treatment
Method: as §1, §2

ACHN = settings: Homo sapiens; ACHN (kidney), 72 hr treatment
Method: as §1, §2

WSU-NHL = settings: Homo sapiens; WSU-NHL (hematological), 72 hr treatment
Method: as §1, §2

| IC50 (MDAMB435) [µM] | IC50 (MDAMB436) [µM] | IC50 (UO31) [µM] | IC50 (MIAPACA2) [µM] | IC50 (COLO205) [µM] | IC50 (IMR90) [µM] | IC50 (IGROV1) [µM] | IC50 (MHHES1) [µM] | IC50 (HS578T) [µM] | IC50 (CACO2) [µM] | IC50 (BXPC3) [µM] | IC50 (PC3) [µM] | IC50 (SKNSH) [µM] | IC50 (HELA) [µM] | IC50 (CAKI1) [µM] | IC50 (DU145) [µM] | IC50 (JIMT1) [µM] | IC50 (A673) [µM] | IC50 (SF268) [µM] | IC50 (SKNAS) [µM] | SMILES | other results |
| --- | --- | --- | --- | --- | --- | --- | --- | --- | --- | --- | --- | --- | --- | --- | --- | --- | --- | --- | --- | --- | --- |
| > 10 | < 10 | < 10 | < 10 | < 10 | > 10 | < 10 | < 10 | > 10 | < 10 | < 10 | > 10 | < 10 | < 10 | < 10 | < 10 | < 10 | < 10 | < 10 | > 10 | CS(=O)(=O)Nc1ccc(-c2cc(-c3ccnc4c3OCCO4)cs2)c(Cl)c1 [Compound I-9017, N-(3-chloro-4-(4-(2,3-dihydro-[1,4]dioxino[2,3-b]pyridin-8-yl)thiophen-2-yl)phenyl)methanesulfonamide] | IC50 (NCIH460): < 10 µM; IC50 (EFO21): < 10 µM; IC50 (SNB75): > 10 µM; IC50 (HEPG2): < 10 µM; IC50 (SU-DHL-10): < 10 µM; IC50 (HCT15): > 10 µM; IC50 (U87MG): < 10 µM; IC50 (SKHEP1): < 10 µM; IC50 (HL-60): < 10 µM; IC50 (ACHN): < 10 µM; IC50 (WSU-NHL): < 10 µM |
| < 10 | < 10 | > 10 | > 10 | < 10 | > 10 | > 10 | < 10 | > 10 | < 10 | > 10 | > 10 | < 10 | < 10 | < 10 | > 10 | < 10 | > 10 | < 10 | > 10 | CC(C)(O)Cc1cc(-c2csc(-c3ccc(NS(C)(=O)=O)cc3Cl)c2)ccn1 [Compound I-9004, N-(3-chloro-4-(4-(2-(2-hydroxy-2-methylpropyl)pyridin-4-yl)thiophen-2-yl)phenyl)methanesulfonamide] | IC50 (NCIH460): < 10 µM; IC50 (EFO21): < 10 µM; IC50 (SNB75): > 10 µM; IC50 (HEPG2): < 10 µM; IC50 (SU-DHL-10): < 10 µM; IC50 (HCT15): < 10 µM; IC50 (U87MG): > 10 µM; IC50 (SKHEP1): < 10 µM; IC50 (HL-60): < 10 µM; IC50 (ACHN): < 10 µM; IC50 (WSU-NHL): < 10 µM |
| > 10 | > 10 | > 10 | > 10 | < 10 | > 10 | > 10 | < 10 | > 10 | < 10 | > 10 | > 10 | < 10 | < 10 | < 10 | > 10 | < 10 | > 10 | < 10 | > 10 | CC(C)(CO)c1cc(-c2csc(-c3ccc(NS(C)(=O)=O)cc3Cl)c2)ccn1 [Compound I-8909, N-(3-chloro-4-(4-(2-(1-hydroxy-2-methylpropan-2-yl)pyridin-4-yl)thiophen-2-yl)phenyl)methanesulfonamide] | IC50 (NCIH460): < 10 µM; IC50 (EFO21): < 10 µM; IC50 (SNB75): > 10 µM; IC50 (HEPG2): < 10 µM; IC50 (SU-DHL-10): < 10 µM; IC50 (HCT15): > 10 µM; IC50 (U87MG): > 10 µM; IC50 (SKHEP1): < 10 µM; IC50 (HL-60): < 10 µM; IC50 (ACHN): < 10 µM; IC50 (WSU-NHL): < 10 µM |

— patent US20220056018A1, “SREBP INHIBITORS COMPRISING A THIOPHENE CENTRAL RING” (Capulus Therapeutics, LLC, priority 2019, published 2022)
